Assay results from US20250127787A1, “METHODS FOR TREATING PERIPHERAL NEUROPATHY” (University of Pittsburgh - Of the Commonwealth System of …, priority 2021, published 2025).
“Also recorded” adds a separate entry of the source.

Assays:
[1] = tested on: superoxide dismutase (SOD1); test: SOD1 expression in rat epidermis after sciatic nerve injury, Western immunoblotting; assay type: in vivo; conditions: 8-AG 5 mg/kg/day in drinking water
Experimental: Animals. This study employed female Harlan Sprague Dawley (HSD) rats (3-4 mo; Envigo, Indianapolis, IN) and were divided into the following groups: 1) Control, 2) Sciatic nerve crush (day 0, sacrifice on day 6); 3) 8-aminoguanine (8-AG; 5 mg/kg/day in drinking water; beginning 2 weeks prior to nerve crush and continuing until sacrifice (day 6)). The dose of 8-AG is based on the work above and published experiments. Further, the water consumption/day was tracked. […] All tissues (hindpaw epidermis) were removed from isoflurane anesthetized rats and the tissue was used for various experimental approaches as described below. At the end of tissue removal, animals were sacrificed by thoracotomy. […]

PNPase = PNPase (Rattus norvegicus, UniProt P85973); conditions: single bolus 5 mg/kg
Sequence of PNPase (P85973 whole entry): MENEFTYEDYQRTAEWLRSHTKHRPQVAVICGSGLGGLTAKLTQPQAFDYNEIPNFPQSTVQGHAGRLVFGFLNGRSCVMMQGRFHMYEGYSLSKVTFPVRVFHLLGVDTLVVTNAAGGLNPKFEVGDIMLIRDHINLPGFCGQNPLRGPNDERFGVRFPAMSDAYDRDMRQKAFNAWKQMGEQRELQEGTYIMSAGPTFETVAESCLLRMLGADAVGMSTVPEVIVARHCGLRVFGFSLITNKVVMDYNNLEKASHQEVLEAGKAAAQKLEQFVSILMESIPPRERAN
Experimental: Rats were anesthetized with urethane (Sigma-Aldrich, St. Louis, MO) at 1.2 g/kg. A continuous infusion of 0.9% sterile saline at 25 ul/min was established via a catheter inserted into the jugular vein. A second catheter to the carotid artery was established in order to collect blood samples (200 μl) which were drawn into a 1 ml syringe prefilled with 50 U heparin. Blood samples were centrifuged at 1300 g for 10 minutes and supernatant (plasma) was then quickly frozen on dry ice and stored at −80° C. until assay. Urine samples were collected by a urethral catheter, centrifuged at 416 g for 10 minutes to remove sediment, and stored as above. Baseline blood samples and urine samples were collected followed by a single bolus of 8-aminoguanine (8-AG, 5 mg/kg) administered through the jugular catheter. Blood samples were collected after 15, 30, 60, 120 and 240 minutes. Urine samples were collected at 1, 2, 4 and 6 hours.
Purines in urine were measured by mass spectrometry using multiple reaction monitoring. Blood samples were diluted 1 to 30 with water, and heavy isotope internal standards were added to each sample. Purines were separated by reversed-phase ultra-performance liquid chromatography (Waters UPLC BEH C18 column, 1.7 μm beads; 2.1×150 mm; Milford, MA) and quantified by multiple reaction monitoring using a triple quadrupole mass spectrometer (TSQ Quantum-Ultra; ThermoFisher Scientific, San Jose, CA) with a heated electrospray ionization source. The mobile phase was a linear gradient flow rate (300 uL/min) of 1% acetic acid in water (pH, 3; mobile phase A) and 100% methanol (mobile phase B), and was delivered with a Waters Acquity ultra-performance liquid chromatographic system. The gradient (A/B) settings were: from 0 to 2 minutes, 99.6%/0.4%; from 2 to 3 minutes, to 98.0%/2.0%; from 3 to 4 minutes, to 85.0%/15.0%; from 4 to 6.5 minutes, to 99.6%/0.4%. The instrument parameters were: sample tray temperature, 10° C.; column temperature, 50° C.; ion spray voltage, 4.0 kilovolts; ion transfer tube temperature, 350° C.; source vaporization temperature, 320° C.; Q2 CID gas, argon at 1.5 mTorr; sheath gas, nitrogen at 60 psi; auxillary gas, nitrogen at 35 psi; Q1/Q3 width, 0.7/0.7 units full-width half-maximum; scan width, 0.6 units; scan time, 0.01 seconds. The following transitions (multiple reaction monitoring) were obtained: guanosine (284→152; RT=2.94 min); ^13C10, ^15N5-guanosine (299→162, RT=2.94 min); guanine (152→135; RT=1.48 min); ^13C2, ^15N-guanine (155→138, RT=1.48 min); hypoxanthine (137→119 m/z, RT=1.86 min); ^13C5-hypoxanthine (142→124 m/z, RT=1.86 min); aminoguanine (167→150 m/z, RT=1.50 min); ^13C2^15N-aminoguanine (170→153 m/z, RT=1.50 min).

duration of sustained reduction in the ratio of urine guanosine to urine guanine (PNPase; rat urine): > 6 h
duration of sustained reduction in urine levels of hypoxanthine (PNPase; rat urine): > 6 h
hypoxanthine levels in the urine (PNPase; rat urine): decrease
duration of sustained inhibition of PNPase following a bolus dose (PNPase; rat): > 6 h
SMILES: Nc1nc2[nH]c(N)nc2c(=O)[nH]1 [8-AG, 8-Aminoguanine]
effect on sciatic nerve injury-induced decrease in SOD1 expression [1]: restored to control values; also recorded: normalized
effect on sciatic nerve injury-induced decrease in SOD1 expression ([1]; listed as 8-Aminoguanine): normalized
